From PubChem BioAssay (NCI)
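Dose response: 5 concentrations. Exposure: 48 h. Format: 96-well plates. Endpoint: linear interpolation; highest concentration if not reached. The concentration for 50% growth inhibition is given as GI50. TGI is the concentration that stops growth completely.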

Tests used:
Test in all cases: NCI-60 cell line screen, 48 h
NCI/ADR-RES ovarian = system: NCI/ADR-RES ovarian
MCF7 breast = system: MCF7 breast
K-562 leukemia = system: K-562 leukemia
SK-MEL-28 melanoma = system: SK-MEL-28 melanoma
HCC-2998 colon = system: HCC-2998 colon
A498 renal = system: A498 renal
KM12 colon = system: KM12 colon
RPMI-8226 leukemia = system: RPMI-8226 leukemia
SNB-19 CNS = system: SNB-19 CNS
MDA-MB-231 breast = system: MDA-MB-231 breast
PC-3 prostate = system: PC-3 prostate
UACC-62 melanoma = system: UACC-62 melanoma
IGROV1 ovarian = system: IGROV1 ovarian
OVCAR-5 ovarian = system: OVCAR-5 ovarian
COLO 205 colon = system: COLO 205 colon
HCT-116 colon = system: HCT-116 colon
SK-OV-3 ovarian = system: SK-OV-3 ovarian
SK-MEL-5 melanoma = system: SK-MEL-5 melanoma
HT29 colon = system: HT29 colon
ACHN renal = system: ACHN renal
SK-MEL-2 melanoma = system: SK-MEL-2 melanoma
RXF 393 renal = system: RXF 393 renal
NCI-H23 lung = system: NCI-H23 lung
T-47D breast = system: T-47D breast
CAKI-1 renal = system: CAKI-1 renal
MDA-MB-435 = system: MDA-MB-435
NCI-H226 lung = system: NCI-H226 lung
MALME-3M melanoma = system: MALME-3M melanoma
OVCAR-8 ovarian = system: OVCAR-8 ovarian
OVCAR-4 ovarian = system: OVCAR-4 ovarian
BT-549 breast = system: BT-549 breast
HL-60(TB) leukemia = system: HL-60(TB) leukemia
SF-539 CNS = system: SF-539 CNS
SN12C renal = system: SN12C renal
SNB-75 CNS = system: SNB-75 CNS
HS 578T breast = system: HS 578T breast
786-0 renal = system: 786-0 renal
M14 melanoma = system: M14 melanoma
OVCAR-3 ovarian = system: OVCAR-3 ovarian
DU-145 prostate = system: DU-145 prostate
SW-620 colon = system: SW-620 colon
UACC-257 melanoma = system: UACC-257 melanoma
SF-295 CNS = system: SF-295 CNS
MOLT-4 leukemia = system: MOLT-4 leukemia
LOX IMVI melanoma = system: LOX IMVI melanoma
U251 CNS = system: U251 CNS
A549 NSCLC = system: A549 NSCLC
SF-268 CNS = system: SF-268 CNS
NCI-H522 lung = system: NCI-H522 lung
CCRF-CEM leukemia = system: CCRF-CEM leukemia
HOP-62 NSCLC = system: HOP-62 NSCLC
HCT-15 colon = system: HCT-15 colon
HOP-92 NSCLC = system: HOP-92 NSCLC
NCI-H460 lung = system: NCI-H460 lung
UO-31 renal = system: UO-31 renal
SR leukemia = system: SR leukemia

**Q.** With `CCN(Cc1c(F)cccc1F)c1ccc(CO)c(Cl)c1` as the molecule, how does the GI50 (NCI/ADR-RES ovarian) read?
**A.** 6.86 µM

**Q.** What about the TGI (NCI/ADR-RES ovarian) of the same molecule?
**A.** 43.2 µM

**Q.** And the GI50 (MCF7 breast)?
**A.** 0.0488 µM

**Q.** And the TGI (MCF7 breast)?
**A.** 18.4 µM

**Q.** And the GI50 (K-562 leukemia)?
**A.** 0.209 µM

**Q.** And the TGI (K-562 leukemia)?
**A.** 28.2 µM

**Q.** And the GI50 (SK-MEL-28 melanoma)?
**A.** 19.1 µM

**Q.** And the TGI (SK-MEL-28 melanoma)?
**A.** 52.6 µM

**Q.** What about the GI50 (HCC-2998 colon) of the same molecule?
**A.** 1.15 µM

**Q.** What about the TGI (HCC-2998 colon) of the same molecule?
**A.** 10.7 µM

**Q.** What about the GI50 (A498 renal) of the same molecule?
**A.** 0.0173 µM

**Q.** What about the TGI (A498 renal) of the same molecule?
**A.** 0.069 µM

**Q.** And the GI50 (KM12 colon)?
**A.** 11.4 µM

**Q.** And the TGI (KM12 colon)?
**A.** 26.8 µM

**Q.** What about the GI50 (RPMI-8226 leukemia) of the same molecule?
**A.** 1.1 µM

**Q.** What about the TGI (RPMI-8226 leukemia) of the same molecule?
**A.** 41.4 µM

**Q.** What about the GI50 (SNB-19 CNS) of the same molecule?
**A.** 24.4 µM

**Q.** What about the TGI (SNB-19 CNS) of the same molecule?
**A.** > 100 µM

**Q.** What about the GI50 (MDA-MB-231 breast) of the same molecule?
**A.** 13 µM

**Q.** What about the TGI (MDA-MB-231 breast) of the same molecule?
**A.** 38.3 µM

**Q.** And the GI50 (PC-3 prostate)?
**A.** 12.6 µM

**Q.** And the TGI (PC-3 prostate)?
**A.** 46.9 µM

**Q.** What about the GI50 (UACC-62 melanoma) of the same molecule?
**A.** 0.0517 µM

**Q.** And the TGI (UACC-62 melanoma)?
**A.** 0.325 µM

**Q.** And the GI50 (IGROV1 ovarian)?
**A.** 0.0401 µM

**Q.** And the TGI (IGROV1 ovarian)?
**A.** 0.193 µM

**Q.** And the GI50 (OVCAR-5 ovarian)?
**A.** 0.0353 µM

**Q.** What about the TGI (OVCAR-5 ovarian) of the same molecule?
**A.** 0.147 µM

**Q.** And the GI50 (COLO 205 colon)?
**A.** 0.387 µM

**Q.** And the TGI (COLO 205 colon)?
**A.** 1.61 µM

**Q.** What about the GI50 (HCT-116 colon) of the same molecule?
**A.** 0.0291 µM

**Q.** What about the TGI (HCT-116 colon) of the same molecule?
**A.** 12.8 µM

**Q.** What about the GI50 (SK-OV-3 ovarian) of the same molecule?
**A.** 1.65 µM

**Q.** What about the TGI (SK-OV-3 ovarian) of the same molecule?
**A.** 9.91 µM

**Q.** And the GI50 (SK-MEL-5 melanoma)?
**A.** 13.5 µM

**Q.** And the TGI (SK-MEL-5 melanoma)?
**A.** 26.7 µM

**Q.** And the GI50 (HT29 colon)?
**A.** 0.747 µM

**Q.** And the TGI (HT29 colon)?
**A.** 19.5 µM

**Q.** And the GI50 (ACHN renal)?
**A.** 20.8 µM

**Q.** And the TGI (ACHN renal)?
**A.** > 74.5 µM

**Q.** And the GI50 (SK-MEL-2 melanoma)?
**A.** 14.6 µM

**Q.** What about the TGI (SK-MEL-2 melanoma) of the same molecule?
**A.** 31.8 µM

**Q.** What about the GI50 (RXF 393 renal) of the same molecule?
**A.** 1.14 µM

**Q.** And the TGI (RXF 393 renal)?
**A.** 24.2 µM

**Q.** What about the GI50 (NCI-H23 lung) of the same molecule?
**A.** 15 µM

**Q.** And the TGI (NCI-H23 lung)?
**A.** 57.5 µM

**Q.** What about the GI50 (T-47D breast) of the same molecule?
**A.** 0.0516 µM

**Q.** And the TGI (T-47D breast)?
**A.** 0.288 µM

**Q.** What about the GI50 (CAKI-1 renal) of the same molecule?
**A.** 0.167 µM

**Q.** And the TGI (CAKI-1 renal)?
**A.** 1.77 µM

**Q.** And the GI50 (MDA-MB-435)?
**A.** 14.8 µM

**Q.** What about the TGI (MDA-MB-435) of the same molecule?
**A.** 40.9 µM

**Q.** And the GI50 (NCI-H226 lung)?
**A.** 0.0318 µM

**Q.** And the TGI (NCI-H226 lung)?
**A.** 0.126 µM

**Q.** What about the GI50 (MALME-3M melanoma) of the same molecule?
**A.** 17.5 µM

**Q.** And the TGI (MALME-3M melanoma)?
**A.** 36.6 µM

**Q.** What about the GI50 (OVCAR-8 ovarian) of the same molecule?
**A.** 4.15 µM

**Q.** And the TGI (OVCAR-8 ovarian)?
**A.** 35.8 µM

**Q.** And the GI50 (OVCAR-4 ovarian)?
**A.** 0.0429 µM

**Q.** And the TGI (OVCAR-4 ovarian)?
**A.** 0.319 µM

**Q.** What about the GI50 (BT-549 breast) of the same molecule?
**A.** 16.5 µM

**Q.** What about the TGI (BT-549 breast) of the same molecule?
**A.** 41.4 µM

**Q.** What about the GI50 (HL-60(TB) leukemia) of the same molecule?
**A.** 3.1 µM

**Q.** What about the TGI (HL-60(TB) leukemia) of the same molecule?
**A.** 39.4 µM

**Q.** What about the GI50 (SF-539 CNS) of the same molecule?
**A.** 20.5 µM

**Q.** What about the TGI (SF-539 CNS) of the same molecule?
**A.** > 59.2 µM

**Q.** And the GI50 (SN12C renal)?
**A.** 15.4 µM

**Q.** And the TGI (SN12C renal)?
**A.** 58.5 µM

**Q.** What about the GI50 (SNB-75 CNS) of the same molecule?
**A.** 11 µM

**Q.** And the TGI (SNB-75 CNS)?
**A.** 49.6 µM

**Q.** What about the GI50 (HS 578T breast) of the same molecule?
**A.** 20.4 µM

**Q.** What about the TGI (HS 578T breast) of the same molecule?
**A.** 77.4 µM

**Q.** What about the GI50 (786-0 renal) of the same molecule?
**A.** 15.3 µM

**Q.** And the TGI (786-0 renal)?
**A.** 45.6 µM

**Q.** And the GI50 (M14 melanoma)?
**A.** 19.4 µM

**Q.** And the TGI (M14 melanoma)?
**A.** 48.1 µM

**Q.** And the GI50 (OVCAR-3 ovarian)?
**A.** 0.0634 µM

**Q.** What about the TGI (OVCAR-3 ovarian) of the same molecule?
**A.** 0.317 µM

**Q.** What about the GI50 (DU-145 prostate) of the same molecule?
**A.** 12.3 µM

**Q.** And the TGI (DU-145 prostate)?
**A.** 47 µM

**Q.** And the GI50 (SW-620 colon)?
**A.** 0.139 µM

**Q.** What about the TGI (SW-620 colon) of the same molecule?
**A.** > 90.4 µM

**Q.** What about the GI50 (UACC-257 melanoma) of the same molecule?
**A.** 0.0389 µM

**Q.** And the TGI (UACC-257 melanoma)?
**A.** 0.149 µM

**Q.** And the GI50 (SF-295 CNS)?
**A.** 0.108 µM

**Q.** And the TGI (SF-295 CNS)?
**A.** 28 µM

**Q.** And the GI50 (MOLT-4 leukemia)?
**A.** 22.1 µM

**Q.** And the TGI (MOLT-4 leukemia)?
**A.** 71.7 µM

**Q.** And the GI50 (LOX IMVI melanoma)?
**A.** 17.4 µM

**Q.** And the TGI (LOX IMVI melanoma)?
**A.** 32.4 µM

**Q.** And the GI50 (U251 CNS)?
**A.** 0.195 µM

**Q.** What about the TGI (U251 CNS) of the same molecule?
**A.** 32.5 µM

**Q.** What about the GI50 (A549 NSCLC) of the same molecule?
**A.** 0.445 µM

**Q.** And the TGI (A549 NSCLC)?
**A.** 10.7 µM

**Q.** What about the GI50 (SF-268 CNS) of the same molecule?
**A.** 24.8 µM

**Q.** And the TGI (SF-268 CNS)?
**A.** > 77.3 µM

**Q.** What about the GI50 (NCI-H522 lung) of the same molecule?
**A.** 15.1 µM

**Q.** What about the TGI (NCI-H522 lung) of the same molecule?
**A.** 38.8 µM

**Q.** And the GI50 (CCRF-CEM leukemia)?
**A.** 25.7 µM

**Q.** What about the TGI (CCRF-CEM leukemia) of the same molecule?
**A.** 98.5 µM

**Q.** What about the GI50 (HOP-62 NSCLC) of the same molecule?
**A.** 0.327 µM

**Q.** And the TGI (HOP-62 NSCLC)?
**A.** 34.7 µM

**Q.** What about the GI50 (HCT-15 colon) of the same molecule?
**A.** 9.04 µM

**Q.** And the TGI (HCT-15 colon)?
**A.** 48.8 µM

**Q.** What about the GI50 (HOP-92 NSCLC) of the same molecule?
**A.** 0.162 µM

**Q.** What about the TGI (HOP-92 NSCLC) of the same molecule?
**A.** 0.988 µM

**Q.** What about the GI50 (NCI-H460 lung) of the same molecule?
**A.** 0.0663 µM

**Q.** What about the TGI (NCI-H460 lung) of the same molecule?
**A.** 0.612 µM

**Q.** What about the GI50 (UO-31 renal) of the same molecule?
**A.** 2.3 µM

**Q.** And the TGI (UO-31 renal)?
**A.** 51.4 µM

**Q.** And the GI50 (SR leukemia)?
**A.** 16.5 µM

**Q.** And the TGI (SR leukemia)?
**A.** 49.2 µM
